Measured values: PubChem BioAssay AID220 (DTP/NCI, 2004)
“And” between values parts separate entries of the source, which are not always exact repeats. Equal entries are not always repeated. Results filed as inconclusive are left out.

Test system: CD8F1 mice, subcutaneous mammary adenocarcinoma, T/C%
Assay: NCI In Vivo Anticancer Drug Screen. Data for tumor model Mammary Adenocarcinoma CD8F1 (subcutaneous) in CD8F1
Details: higher = larger tumour
How it was run: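 Tumor-bearing mice, transplantable model; readout survival or tumor size; value = treated (T) / vehicle control (C).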

[1] = endpoint: median tumor weight (est.), dose: 2.5 mg/kg/injection, schedule: Q07DX005 (ip), vehicle: Klucel (hydroxypropylcellulose) (HPC)
[2] = endpoint: median tumor weight (est.), dose: 5.0 mg/kg/injection, schedule: Q07DX005 (ip), vehicle: Klucel (hydroxypropylcellulose) (HPC)
[3] = endpoint: median tumor weight (est.), dose: 20.0 mg/kg/injection, schedule: Q07DX005 (ip), vehicle: Klucel (hydroxypropylcellulose) (HPC)

CS(=O)(=O)OCCN(CCOS(C)(=O)=O)c1ccc(C=Nc2ccc(-c3csc(COc4ccccc4)n3)cc2)cc1
T/C (endpoint: median tumor weight (est.), dose: 6.25 mg/kg/injection, schedule: Q07DX005 (ip), vehicle: Klucel (hydroxypropylcellulose) (HPC)): 88 % of control
T/C (endpoint: median tumor weight (est.), dose: 12.5 mg/kg/injection, schedule: Q07DX005 (ip), vehicle: Klucel (hydroxypropylcellulose) (HPC)): 97 % of control and 103 % of control
T/C (endpoint: median tumor weight (est.), dose: 25.0 mg/kg/injection, schedule: Q07DX005 (ip), vehicle: Klucel (hydroxypropylcellulose) (HPC)): 75 % of control and 79 % of control
T/C (endpoint: median tumor weight (est.), dose: 50.0 mg/kg/injection, schedule: Q07DX005 (ip), vehicle: Klucel (hydroxypropylcellulose) (HPC)): 83 % of control
T/C (endpoint: median tumor weight (est.), dose: 100.0 mg/kg/injection, schedule: Q07DX005 (ip), vehicle: Klucel (hydroxypropylcellulose) (HPC)): 27 % of control and 44 % of control

Cc1c2ccc3ccccc3c2c[n+]2ccccc12
T/C [1]: 84 % of control
T/C [2]: 86 % of control
T/C (endpoint: median tumor weight (est.), dose: 10.0 mg/kg/injection, schedule: Q07DX005 (ip), vehicle: Klucel (hydroxypropylcellulose) (HPC)): 83 % of control
T/C [3]: 57 % of control

C/C=C(\C)C(=O)OC1C(C)C2(O)C(C=C(CO)CC3(O)C(=O)C(C)=CC32)C2C(C)(C)C12OC(=O)CCCCCCCCC (stereo unspecified)
T/C (endpoint: median tumor weight (est.), dose: 0.06 mg/kg/injection, schedule: Q07DX005 (ip), vehicle: saline + alcohol): 91 % of control
T/C (endpoint: median tumor weight (est.), dose: 0.12 mg/kg/injection, schedule: Q07DX005 (ip), vehicle: saline + alcohol): 76 % of control
T/C (endpoint: median tumor weight (est.), dose: 0.25 mg/kg/injection, schedule: Q07DX005 (ip), vehicle: saline + alcohol): 92 % of control

CCC[CH2][Hg][Cl]
T/C [1]: 197 % of control
T/C [2]: 112 % of control
T/C [3]: 110 % of control

Nc1ccc2ccc(NS(=O)(=O)N3CCCCC3)cc2c1
T/C (endpoint: median tumor weight change, dose: 125.0 mg/kg/injection, schedule: Q01DX001 (ip), vehicle: saline with Tween-80): 66 % of control
T/C (endpoint: median tumor weight change, dose: 250.0 mg/kg/injection, schedule: Q01DX001 (ip), vehicle: saline with Tween-80): 73 % of control
T/C (endpoint: median tumor weight change, dose: 500.0 mg/kg/injection, schedule: Q01DX001 (ip), vehicle: saline with Tween-80): 87 % of control
T/C (endpoint: median tumor weight change, dose: 1000.0 mg/kg/injection, schedule: Q01DX001 (ip), vehicle: saline with Tween-80): 31 % of control

NC(Cc1cc([N+](=O)[O-])ccc1CN(CCCl)CCCl)C(=O)O (stereo unspecified)
T/C (endpoint: median tumor weight (est.), dose: 2.0 mg/kg/injection, schedule: Q07DX005 (ip), vehicle: Klucel (hydroxypropylcellulose) (HPC)): 8 % of control

CCN(CC)CC[n+]1ccc2c(C)c3[nH]c4ccc(O)cc4c3c(C)c2c1
T/C (endpoint: median tumor weight change, dose: 7.5 mg/kg/injection, schedule: Q01DX001 (ip), vehicle: suspension in saline): 83 % of control
T/C (endpoint: median tumor weight change, dose: 15.0 mg/kg/injection, schedule: Q01DX001 (ip), vehicle: suspension in saline): 72 % of control and 75 % of control
T/C (endpoint: median tumor weight change, dose: 15.6 mg/kg/injection, schedule: Q01DX001 (ip), vehicle: suspension in saline): 78 % of control
T/C (endpoint: median tumor weight change, dose: 31.0 mg/kg/injection, schedule: Q01DX001 (ip), vehicle: suspension in saline): 57 % of control
T/C (endpoint: median tumor weight change, dose: 60.0 mg/kg/injection, schedule: Q01DX001 (ip), vehicle: suspension in saline): 7 % of control and 26 % of control
T/C (endpoint: median tumor weight change, dose: 62.0 mg/kg/injection, schedule: Q01DX001 (ip), vehicle: suspension in saline): 3 % of control

O=C(C1CO1)C(Cl)(Cl)Cl (stereo unspecified)
T/C (endpoint: median tumor weight change, dose: 4.0 mg/kg/injection, schedule: Q01DX001 (ip), vehicle: saline): 81 % of control
T/C (endpoint: median tumor weight change, dose: 8.0 mg/kg/injection, schedule: Q01DX001 (ip), vehicle: saline): 72 % of control
T/C (endpoint: median tumor weight change, dose: 16.0 mg/kg/injection, schedule: Q01DX001 (ip), vehicle: saline): 68 % of control
T/C (endpoint: median tumor weight change, dose: 125.0 mg/kg/injection, schedule: Q01DX001 (ip), vehicle: saline): 34 % of control

CS(=O)(=O)[O-].CS(=O)(=O)[O-].NC1CCCCC1N.[Pt+4] (stereo unspecified)
T/C (endpoint: median tumor weight (est.), dose: 0.63 mg/kg/injection, schedule: Q07DX005 (ip), vehicle: dextrose): 96 % of control
T/C (endpoint: median tumor weight (est.), dose: 5.0 mg/kg/injection, schedule: Q07DX005 (ip), vehicle: dextrose): 4 % of control and 8 % of control

O=P1(N(CCCl)CCCl)NCCCO1 (stereo unspecified)
T/C (endpoint: mean tumor weight, dose: 20.0 mg/kg/injection, schedule: Q01DX018 (ip), vehicle: saline): 8 % of control
T/C (endpoint: mean tumor weight, dose: 37.5 mg/kg/injection, schedule: Q07DX004 (ip), vehicle: saline): 3 % of control
T/C (endpoint: mean tumor weight, dose: 40.0 mg/kg/injection, schedule: Q01DX009 (ip), vehicle: saline): 4 % of control and 9 % of control
T/C (endpoint: mean tumor weight, dose: 50.0 mg/kg/injection, schedule: Q07DX004 (ip), vehicle: saline): 3 % of control
T/C (endpoint: median tumor weight (est.), dose: 10.0 mg/kg/injection, schedule: Q01DX005 (ip), vehicle: saline): 55 % of control
T/C (endpoint: median tumor weight (est.), dose: 20.0 mg/kg/injection, schedule: Q01DX005 (ip), vehicle: saline): 1 % of control
T/C (endpoint: median tumor weight (est.), dose: 25.0 mg/kg/injection, schedule: Q01DX005 (ip), vehicle: saline): 80 % of control
T/C (endpoint: median tumor weight (est.), dose: 37.5 mg/kg/injection, schedule: Q01DX005 (ip), vehicle: saline): 17 % of control
T/C (endpoint: median tumor weight (est.), dose: 37.5 mg/kg/injection, schedule: Q04DX005 (ip), vehicle: saline): 60 % of control
T/C (endpoint: median tumor weight (est.), dose: 40.0 mg/kg/injection, schedule: Q01DX005 (ip), vehicle: saline): 8 % of control
T/C (endpoint: median tumor weight (est.), dose: 50.0 mg/kg/injection, schedule: Q01DX005 (ip), vehicle: saline): 15 % of control
T/C (endpoint: median tumor weight (est.), dose: 50.0 mg/kg/injection, schedule: Q04DX005 (ip), vehicle: saline): 11 % of control
T/C (endpoint: median tumor weight (est.), dose: 50.0 mg/kg/injection, schedule: Q07DX005 (ip), vehicle: saline): 27 % of control
T/C (endpoint: median tumor weight (est.), dose: 67.0 mg/kg/injection, schedule: Q07DX005 (ip), vehicle: saline): 6 % of control
T/C (endpoint: median tumor weight (est.), dose: 75.0 mg/kg/injection, schedule: Q01DX005 (ip), vehicle: saline): 1 % of control
T/C (endpoint: median tumor weight (est.), dose: 75.0 mg/kg/injection, schedule: Q04DX005 (ip), vehicle: saline): 1 % of control
T/C (endpoint: median tumor weight (est.), dose: 75.0 mg/kg/injection, schedule: Q07DX005 (ip), vehicle: saline): 5 % of control
T/C (endpoint: median tumor weight (est.), dose: 80.0 mg/kg/injection, schedule: Q01DX005 (ip), vehicle: saline): 2 % of control
T/C (endpoint: median tumor weight (est.), dose: 100.0 mg/kg/injection, schedule: Q07DX005 (ip), vehicle: saline): 1 % of control
T/C (endpoint: median tumor weight (est.), dose: 111.0 mg/kg/injection, schedule: Q01DX001 (ip), vehicle: saline): 32 % of control
T/C (endpoint: median tumor weight (est.), dose: 167.0 mg/kg/injection, schedule: Q01DX001 (ip), vehicle: saline): 34 % of control
T/C (endpoint: median tumor weight (est.), dose: 250.0 mg/kg/injection, schedule: Q01DX001 (ip), vehicle: saline): 9 % of control
T/C (endpoint: median tumor weight change, dose: 25.0 mg/kg/injection, schedule: Q01DX001 (ip), vehicle: saline): 91 % of control
T/C (endpoint: median tumor weight change, dose: 50.0 mg/kg/injection, schedule: Q01DX001 (ip), vehicle: saline): 42 % of control and 62 % of control
T/C (endpoint: median tumor weight change, dose: 100.0 mg/kg/injection, schedule: Q01DX001 (ip), vehicle: saline): 5 % of control and 29 % of control
T/C (endpoint: median tumor weight change, dose: 400.0 mg/kg/injection, schedule: Q01DX001 (ip), vehicle: saline): -56 % of control

CC1(C)OC2C(COC(=O)c3ccc([N+](=O)[O-])cc3)OC(NC(=O)N(CCCl)N=O)C2O1 (stereo unspecified)
T/C (endpoint: median tumor weight (est.), dose: 1.25 mg/kg/injection, schedule: Q07DX005 (ip), vehicle: saline with Tween-80): 46 % of control
T/C (endpoint: median tumor weight (est.), dose: 25.0 mg/kg/injection, schedule: Q07DX005 (ip), vehicle: saline with Tween-80): 51 % of control
T/C (endpoint: median tumor weight (est.), dose: 50.0 mg/kg/injection, schedule: Q07DX005 (ip), vehicle: saline with Tween-80): 16 % of control
T/C (endpoint: median tumor weight (est.), dose: 100.0 mg/kg/injection, schedule: Q07DX005 (ip), vehicle: saline with Tween-80): 36 % of control

[CH3][Sn]([CH3])([Cl])[S]CCN
T/C (endpoint: median tumor weight change, dose: 12.5 mg/kg/injection, schedule: Q01DX001 (ip), vehicle: saline): 108 % of control

C[CH2][Ge]1([CH2]C)[CH2]CC2(CCN(CCCN(C)C)C2)C[CH2]1
T/C (endpoint: mean tumor weight, dose: 25.0 mg/kg/injection, schedule: Q04DX009 (ip), vehicle: saline): 113 % of control
T/C (endpoint: mean tumor weight, dose: 50.0 mg/kg/injection, schedule: Q04DX009 (ip), vehicle: saline): 87 % of control
T/C (endpoint: mean tumor weight, dose: 100.0 mg/kg/injection, schedule: Q04DX009 (ip), vehicle: saline): 40 % of control
T/C (endpoint: median tumor weight (est.), dose: 2.0 mg/kg/injection, schedule: Q07DX005 (ip), vehicle: saline): 67 % of control
T/C (endpoint: median tumor weight (est.), dose: 4.0 mg/kg/injection, schedule: Q07DX005 (ip), vehicle: saline): 57 % of control
T/C (endpoint: median tumor weight (est.), dose: 16.0 mg/kg/injection, schedule: Q07DX005 (ip), vehicle: saline): 74 % of control
T/C (endpoint: median tumor weight (est.), dose: 32.0 mg/kg/injection, schedule: Q07DX005 (ip), vehicle: saline): 55 % of control and 68 % of control
T/C (endpoint: median tumor weight (est.), dose: 64.0 mg/kg/injection, schedule: Q07DX005 (ip), vehicle: saline): 67 % of control and 77 % of control
